The subject of data set [1] is humans. As to conditions: not without risk of some serious side effects; cited from earlier work.
Data set [2] concerns anemic rat. As to the kind of experiment: curative test: bioavailability of iron / hemoglobin repletion in the anemic rat (cyanomethemoglobin method of Drabkin). As to conditions: for improvement in hemoglobin: 0.2 mg iron per day. It counts as in vivo, rat (male albino, Wistar-derived stock). From the text:
The "curative" test results can be obtained in an oral administration technique, wherein the test animals are fed a prescribed iron-poor diet and are brought to an anemic condition through a controlled experimental technique. […] This test technique is generally standardized and has been used, with many variations, to determine bioavailability of iron in a variety of hematinics.
Reagent grade ferrous sulfate heptahydrate (Fisher Scientific Co.) was used without further purification at the calculated iron content of 20.1%.
Weanling male albino rats (Wistar-derived stock weighing between 45 and 55 grams) were placed in individual cages (newly galvanized) and provided with food and distilled water, ad libitum. The iron-low diet was that described by Pla and Fritz (J. Assoc. Offic. Anal. Chem. 54, 18 (1971). Weekly determination of hemoglobin content in tail blood was determined by the cyanomethemoglobin method of Drabkin adapted to 0.02 ml samples as recommended by these authors.
18 rats were selected for the test from a larger number to provide three matched groups of six, each having essentially equal initial hemoglobin values.
The solution prepared on Fridays was also dosed on Saturdays and Sundays. The solutions were administered by intragastric intubulation. The Negative Control Group received sham treatment consisting of plain water.
Body weights of all animals were recorded weekly and hemoglobin determinations were repeated after two and four weeks of dosing.

Data set [3] has as its system rabbits. Particulars: intravenous route; cited from earlier work.
The subject of data set [4] is rats. As to conditions: oral ingestion; cited from earlier work.
A short description of data set [5]: maximum amount of iron which can be complexed with galacturonic acid. The class given is physicochemical. As for the experimental part:
25.5 grams of high-purity galacturonic acid were dissolved in 300 ml of distilled water with the addition of solid sodium carbonate until a pH of 8 to 9 was reached. Separately, 24 grams of anhydrous ferric chloride were dissolved in 300 ml of distilled water and this solution was then added slowly, by dropping funnel, to the aforementioned solution of galacturonic acid, adjusting with solid sodium carbonate as needed to keep the mixture slightly alkaline, e.g. pH 8-9, and keeping the mixture stirred moderately. A beautiful brown-red solution was thus obtained. In order to ascertain the maximum amount of iron which can be complexed with galacturonic acid, a solution of 189.9 grams of anhydrous ferric chloride was dissolved in 1500 ml of distilled water, and this solution was added gradually to the above solution, with good stirring, and always adjusting the alkalinity to a pH of 8-9. […] A light-brown precipitate then appeared which, however, was dissolved again completely in about an hour's time and a perfectly clear, deep brown-red solution again resulted. From the total amounts of galacturonic acid used and ferric chloride solution consumed in the test, it was calculated that one mol weight of galacturonic acid will complex three atom weights of iron. Actually, 2,989 atom-weights of iron were consumed, an amount well within experimental error.

Data on 2 compounds can be found in US4058621A, “Iron complexes and foodstuffs containing them” (priority 1975, dated 1977).

On to ferrous sulfate, for which, in data set [1], the tolerated oral dosage result is recorded as “about 300 milligrams”. Moreover, the improvement in hemoglobin result in data set [2] (after four weeks of dosing) and in data set [2] (after two weeks of dosing) was “significant improvement” each time. The body weight gain result in data set [2] (as compared to the Example 1 Group, differences were nominal) was “averaged slightly better”. The “efficacy in reversing mild deficiency anemia” value in data set [2] (conclusion of the test) is on record as “reversing mild deficiency anemia”. Besides, the LD50 in data set [3] is on record as 99 milligrams per kilogram of body weight; in data set [4], 5,000 milligrams per kilogram of body weight.

With `O=C[C@H](O)[C@@H](O)[C@@H](O)[C@H](O)C(=O)O` [galacturonic acid], the “iron actually consumed per mol weight of galacturonic acid” value in data set [5] (pH 8-9) is recorded as 2,989 atom-weights of iron. Besides, the “iron complexed per mol weight of galacturonic acid” value in data set [5] (pH 8-9, calculated from amounts consumed) is given as “three”.
